The source of these data is US20230212144A1, “5-MEMBERED HETEROARYL DERIVATIVE CONTAINING AT LEAST ONE N, AND PHARMACEUTICAL COMPOSITION FOR PREVENTING OR TREATING MENTAL DISORDERS, CONTAINING SAME AS ACTIVE INGREDIENT” (DAEGU-GYEONGBUK MEDICAL INNOVATION FOUNDATION, priority 2020, published 2023).

Test [1] addresses norepinephrine transporter (NET) (Homo sapiens, UniProt P23975). Put plainly: Norepinephrine reuptake inhibition, [3H]-NE, cells transfected with NE transporter cDNA. The note with it: for Triple reuptake inhibition (Ratio %) NET: compound 1 μM, relative to control without compound (100%), lower value = stronger inhibition.
Procedure: After removing the medium, each compound of Examples or Comparative Examples diluted to 1 μM in uptake buffer was added to a concentration of 200 μL/well and cultured at 37° C. for 15 minutes. 100 μL of uptake buffer containing 20-30 nM [3H]-DA was added and cultured at 37° C. for 5 minutes. The reaction solution was quickly removed and washed three times with 1 mL ice-cold uptake buffer. After dissolving the resultant in 1% SDS (0.5 mL), the degree of binding of radioisotope-labeled dopamine to the transporter was measured.
For norepinephrine(NE) and serotonin(5-HT), the degree of binding of radioisotope-labeled norepinephrine or serotonin to the transporter was measured in the same manner as above, except that cells transfected with NE or 5-HT transporter cDNA were used and [3H]-NE or [3H]-5-HT was used as a substrate.
In addition, when evaluating the reuptake inhibitory effect on dopamine, norepinephrine, and serotonin, the same method was performed without treating each compound of Examples or Comparative Examples as a control, the degree of binding of radioisotope-labeled dopamine, norepinephrine, and serotonin to the transporter was measured, and by using this as a reference (100%), the triple reuptake inhibitory effect was evaluated as a relative ratio (Ratio %). That is, in the control group, the binding of dopamine, norepinephrine, and serotonin to transporters is not inhibited, but when each compound of Examples is treated and thus the binding is inhibited, the Ratio % value decreases.
Test [2] deals with dopamine transporter (DAT) (Homo sapiens, UniProt Q01959). Put plainly: Dopamine reuptake inhibition, [3H]-DA, HEK-293 cells transfected with dopamine transporter cDNA. The following applies: for Triple reuptake inhibition (Ratio %) DAT: compound 1 μM, relative to control without compound (100%), lower value = stronger inhibition.
Chain of dopamine transporter (DAT) (Q01959 whole entry, species assumed): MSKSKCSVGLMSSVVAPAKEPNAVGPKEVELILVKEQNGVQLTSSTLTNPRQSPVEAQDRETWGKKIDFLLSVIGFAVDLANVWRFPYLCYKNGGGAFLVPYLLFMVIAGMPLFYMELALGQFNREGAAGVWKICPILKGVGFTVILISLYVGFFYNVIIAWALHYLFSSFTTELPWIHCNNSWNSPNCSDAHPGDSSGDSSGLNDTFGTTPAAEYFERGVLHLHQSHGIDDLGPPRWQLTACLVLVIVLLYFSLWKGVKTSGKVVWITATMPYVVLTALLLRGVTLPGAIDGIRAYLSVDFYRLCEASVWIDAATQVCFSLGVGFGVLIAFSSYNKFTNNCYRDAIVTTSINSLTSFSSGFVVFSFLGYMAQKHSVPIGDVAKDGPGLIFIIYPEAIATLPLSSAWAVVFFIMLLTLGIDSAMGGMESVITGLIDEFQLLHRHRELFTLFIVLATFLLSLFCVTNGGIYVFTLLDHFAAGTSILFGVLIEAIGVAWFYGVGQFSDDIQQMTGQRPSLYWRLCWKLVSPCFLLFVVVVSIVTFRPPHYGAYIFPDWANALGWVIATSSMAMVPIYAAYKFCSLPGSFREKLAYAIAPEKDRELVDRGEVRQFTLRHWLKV
Test [3] has as its target serotonin transporter (SERT) (Homo sapiens, UniProt P31645). Put plainly: Serotonin reuptake inhibition, [3H]-5-HT, cells transfected with 5-HT transporter cDNA. The note with it: for Triple reuptake inhibition (Ratio %) SERT: compound 1 μM, relative to control without compound (100%), lower value = stronger inhibition.

Chain of serotonin transporter (SERT) (P31645 whole entry, species assumed): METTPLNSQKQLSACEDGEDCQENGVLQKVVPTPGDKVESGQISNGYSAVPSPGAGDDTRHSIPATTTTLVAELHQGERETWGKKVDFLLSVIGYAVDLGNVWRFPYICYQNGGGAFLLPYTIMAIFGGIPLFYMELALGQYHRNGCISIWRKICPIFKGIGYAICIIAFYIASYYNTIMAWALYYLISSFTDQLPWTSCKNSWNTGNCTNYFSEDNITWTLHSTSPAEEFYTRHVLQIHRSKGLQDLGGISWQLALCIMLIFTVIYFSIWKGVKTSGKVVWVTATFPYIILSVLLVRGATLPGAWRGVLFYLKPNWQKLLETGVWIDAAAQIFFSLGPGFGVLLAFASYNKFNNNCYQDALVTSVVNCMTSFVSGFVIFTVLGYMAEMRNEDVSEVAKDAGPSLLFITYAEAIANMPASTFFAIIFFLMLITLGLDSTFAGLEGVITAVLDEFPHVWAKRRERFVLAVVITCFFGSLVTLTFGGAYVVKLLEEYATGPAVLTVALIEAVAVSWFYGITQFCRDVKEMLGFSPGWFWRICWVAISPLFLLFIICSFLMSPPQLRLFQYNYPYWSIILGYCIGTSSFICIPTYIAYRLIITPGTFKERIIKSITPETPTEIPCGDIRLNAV
Chain of norepinephrine transporter (NET) (P23975 whole entry, species assumed): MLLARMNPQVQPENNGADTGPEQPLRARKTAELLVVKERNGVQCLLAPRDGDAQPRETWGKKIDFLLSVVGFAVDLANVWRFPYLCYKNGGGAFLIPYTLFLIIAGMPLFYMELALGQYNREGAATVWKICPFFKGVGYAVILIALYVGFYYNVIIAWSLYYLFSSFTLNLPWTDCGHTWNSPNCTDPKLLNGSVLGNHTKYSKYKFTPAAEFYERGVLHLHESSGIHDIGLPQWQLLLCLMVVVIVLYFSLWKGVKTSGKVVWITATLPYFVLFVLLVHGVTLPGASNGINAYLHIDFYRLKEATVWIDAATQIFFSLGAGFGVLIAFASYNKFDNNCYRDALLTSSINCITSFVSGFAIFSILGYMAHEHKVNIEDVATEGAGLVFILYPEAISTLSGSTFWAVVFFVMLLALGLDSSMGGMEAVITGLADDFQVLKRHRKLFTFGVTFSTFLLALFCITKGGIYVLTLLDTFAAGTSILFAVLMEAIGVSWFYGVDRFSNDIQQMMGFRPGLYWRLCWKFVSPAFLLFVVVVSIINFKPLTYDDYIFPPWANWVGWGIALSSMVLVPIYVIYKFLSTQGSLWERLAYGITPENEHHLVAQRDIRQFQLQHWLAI

The IC50 is the concentration that inhibits the measured activity by half. A low value points to higher potency. As for `Clc1cccc2c(-c3nnc(CN4CCC(Cc5ccccc5)CC4)[nH]3)c[nH]c12` [Example 40, 3-(5-((4-benzylpiperidin-1-yl)methyl)-4H-1,2,4-triazol-3-yl)-7-chloro-1H-indole], in test [1], 924 nM corresponded to half-maximal inhibition (IC50) and the “Triple reuptake inhibition (Ratio %) NET” value stood at 92.42%. For the same molecule, in test [2], the IC50 was 670 nM and the “Triple reuptake inhibition (Ratio %) DAT” value turned out to be 50.15%. In test [3], the IC50 came out at 648 nM and the “Triple reuptake inhibition (Ratio %) SERT” value was 53.66%.

Regarding `Clc1ccc2[nH]cc(-c3nnc(CN4CCC(Cc5ccccc5)CC4)[nH]3)c2c1` [Example 41, 3-(5-((4-benzylpiperidin-1-yl)methyl)-4H-1,2,4-triazol-3-yl)-5-chloro-1H-indole], in test [1], the “Triple reuptake inhibition (Ratio %) NET” value came out at 86.61%. The “Triple reuptake inhibition (Ratio %) DAT” value in test [2] came to 62.96%. Also, in test [3], the “Triple reuptake inhibition (Ratio %) SERT” value is listed as 57.01%.

As to `COC(=O)c1cccc2c(-c3nnc(CN4CCC(Cc5ccccc5)CC4)[nH]3)c[nH]c12` [Example 42, methyl 3-(5-((4-benzylpiperidin-1-yl)methyl)-4H-1,2,4-triazol-3-yl)-1H-indol-7-carboxylate], in test [1], the IC50 was 969 nM and the “Triple reuptake inhibition (Ratio %) NET” value was 96.81%. In test [2], the IC50 was 453 nM and the “Triple reuptake inhibition (Ratio %) DAT” value was 42.13%. Moreover, in test [3], the IC50 is 417 nM and the “Triple reuptake inhibition (Ratio %) SERT” value is listed as 42.17%.

Take `Nc1ccc2[nH]cc(-c3nnc(CN4CCC(Cc5ccccc5)CC4)[nH]3)c2c1` [Example 43, 3-(5-((4-benzylpiperidin-1-yl)methyl)-4H-1,2,4-triazol-3-yl)-1H-indol-5-amine]: in test [1], the IC50 turned out to be 4040 nM and the “Triple reuptake inhibition (Ratio %) NET” value is on record as 88.30%. In test [2], the midpoint of inhibition, the IC50, lay at 435 nM and the “Triple reuptake inhibition (Ratio %) DAT” value worked out at 54.93%. Also, in test [3], 506 nM corresponded to half-maximal inhibition (IC50) and the “Triple reuptake inhibition (Ratio %) SERT” value was found to be 35.57%.

Regarding `COc1ccc2[nH]cc(-c3nnc(CN4CCC(Cc5ccc(Cl)c(Cl)c5)CC4)[nH]3)c2c1` [Example 44, 3-(5-((4-(3,4-dichlorobenzyl)piperidin-1-yl)methyl)-4H-1,2,4-triazol-3-yl)-5-methoxy-1H-indole], the “Triple reuptake inhibition (Ratio %) NET” value in test [1] is on record as 92.59%. For the same molecule, the “Triple reuptake inhibition (Ratio %) DAT” value in test [2] is given as 80.58%. Besides, in test [3], the “Triple reuptake inhibition (Ratio %) SERT” value is recorded as 28.87%.

`COc1cccc2c(-c3nnc(CN4CCC(Cc5ccc(Cl)c(Cl)c5)CC4)[nH]3)c[nH]c12` [Example 45, 3-(5-((4-(3,4-dichlorobenzyl)piperidin-1-yl)methyl)-4H-1,2,4-triazol-3-yl)-7-methoxy-1H-indole]: the “Triple reuptake inhibition (Ratio %) NET” value in test [1] was 112.38%. For the same molecule, in test [2], the “Triple reuptake inhibition (Ratio %) DAT” value stood at 72.49%. For the same molecule, in test [3], the “Triple reuptake inhibition (Ratio %) SERT” value amounted to 21.98%.

For `N#Cc1ccc(-c2nnc(CN3CCC(Cc4ccccc4)CC3)[nH]2)cc1` [Example 46, 4-(5-((4-benzylpiperidin-1-yl)methyl)-4H-1,2,4-triazol-3-yl)benzonitrile], in test [1], the IC50 is 816 nM and the “Triple reuptake inhibition (Ratio %) NET” value amounted to 53.00%. Besides, in test [2], the IC50 turned out to be 203 nM and the “Triple reuptake inhibition (Ratio %) DAT” value stood at 13.85%. For the same molecule, in test [3], inhibition was half-maximal at 2980 nM (IC50) and the “Triple reuptake inhibition (Ratio %) SERT” value was 60.13%.

On to `Fc1ccc(-c2nnc(CN3CCC(Cc4ccccc4)CC3)[nH]2)cc1` [Example 47, 4-benzyl-1-((5-(4-fluorophenyl)-4H-1,2,4-triazol-3-yl)methyl)piperidine], for which, in test [1], the midpoint of inhibition, the IC50, lay at 1170 nM and the “Triple reuptake inhibition (Ratio %) NET” value was found to be 68.26%. For the same molecule, in test [2], half-maximal inhibition (IC50) was put at 372 nM and the “Triple reuptake inhibition (Ratio %) DAT” value turned out to be 20.47%. For the same molecule, in test [3], inhibition was half-maximal at 10700 nM (IC50) and the “Triple reuptake inhibition (Ratio %) SERT” value is 51.93%.

As to `COc1ccc(-c2nnc(CN3CCC(Cc4ccccc4)CC3)[nH]2)cc1OC` [Example 48, 4-benzyl-1-((5-(3,4-dimethoxyphenyl)-4H-1,2,4-triazol-3-yl)methyl)piperidine], in test [1], it took 348 nM to reach half-maximal inhibition (IC50) and the “Triple reuptake inhibition (Ratio %) NET” value is on record as 23.52%. Also, in test [2], the midpoint of inhibition, the IC50, lay at 134 nM and the “Triple reuptake inhibition (Ratio %) DAT” value was determined as 20.20%. For the same molecule, in test [3], the IC50 was found to be 2560 nM and the “Triple reuptake inhibition (Ratio %) SERT” value was determined as 53.41%.

As to `FC(F)(F)Oc1ccc(-c2nnc(CN3CCC(Cc4ccccc4)CC3)[nH]2)cc1` [Example 49, 4-benzyl-1-((5-(4-(trifluoromethoxy)phenyl)-4H-1,2,4-triazol-3-yl)methyl)piperidine], in test [1], 475 nM corresponded to half-maximal inhibition (IC50) and the “Triple reuptake inhibition (Ratio %) NET” value stood at 44.81%. Also, in test [2], the IC50 is 223 nM and the “Triple reuptake inhibition (Ratio %) DAT” value is recorded as 11.41%. Moreover, in test [3], half-maximal inhibition (IC50) required 1770 nM and the “Triple reuptake inhibition (Ratio %) SERT” value amounted to 63.99%.

As for `FC(F)(F)c1ccc(-c2nnc(CN3CCC(Cc4ccccc4)CC3)[nH]2)cc1` [Example 50, 4-benzyl-1-((5-(4-(trifluoromethyl)phenyl)-4H-1,2,4-triazol-3-yl)methyl)piperidine], in test [1], the IC50 is 176 nM and the “Triple reuptake inhibition (Ratio %) NET” value came out at 27.46%. Further, in test [2], the IC50 was 236 nM and the “Triple reuptake inhibition (Ratio %) DAT” value came to 20.84%. Also, in test [3], the IC50 worked out at 5700 nM and the “Triple reuptake inhibition (Ratio %) SERT” value is listed as 66.02%.

Regarding `CC(=O)Nc1ccc(-c2nnc(CN3CCC(Cc4ccccc4)CC3)[nH]2)cc1` [Example 51, N-(4-(5-((4-benzylpiperidin-1-yl)methyl)-4H-1,2,4-triazol-3-yl)phenyl)acetamide], the “Triple reuptake inhibition (Ratio %) NET” value in test [1] is reported as 56.36%. Further, the “Triple reuptake inhibition (Ratio %) DAT” value in test [2] is 75.88%. Further, the “Triple reuptake inhibition (Ratio %) SERT” value in test [3] is given as 38.36%.

On to `Oc1ccc2cc(-c3nnc(CN4CCC(Cc5ccccc5)CC4)[nH]3)ccc2c1` [Example 52, 6-(5-((4-benzylpiperidin-1-yl)methyl)-4H-1,2,4-triazol-3-yl)naphthalen-2-ol], for which, in test [1], the “Triple reuptake inhibition (Ratio %) NET” value stood at 50.92%. Moreover, the “Triple reuptake inhibition (Ratio %) DAT” value in test [2] is on record as 48.72%. Further, the “Triple reuptake inhibition (Ratio %) SERT” value in test [3] came out at 52.31%.

`c1ccc(CC2CCN(Cc3nnc(-c4ccc(Oc5ccccc5)cc4)[nH]3)CC2)cc1` [Example 53, 4-benzyl-1-((5-(4-phenoxyphenyl)-4H-1,2,4-triazol-3-yl)methyl)piperidine]: the “Triple reuptake inhibition (Ratio %) NET” value in test [1] is listed as 28.99%. Moreover, in test [2], the “Triple reuptake inhibition (Ratio %) DAT” value came out at 52.90%. In addition, the “Triple reuptake inhibition (Ratio %) SERT” value in test [3] was 77.61%.

For `FC(F)(F)Oc1cccc(-c2nnc(CN3CCC(Cc4ccccc4)CC3)[nH]2)c1` [Example 54, 4-benzyl-1-((5-(3-(trifluoromethoxy)phenyl)-4H-1,2,4-triazol-3-yl)methyl)piperidine], the “Triple reuptake inhibition (Ratio %) NET” value in test [1] was 52.40%. The “Triple reuptake inhibition (Ratio %) DAT” value in test [2] was 38.97%. For the same molecule, the “Triple reuptake inhibition (Ratio %) SERT” value in test [3] was 88.15%.

Consider `FC(F)(F)c1cccc(-c2nnc(CN3CCC(Cc4ccccc4)CC3)[nH]2)c1` [Example 55, 4-benzyl-1-((5-(3-(trifluoromethyl)phenyl)-4H-1,2,4-triazol-3-yl)methyl)piperidine], for which the “Triple reuptake inhibition (Ratio %) NET” value in test [1] came to 66.71%. In addition, in test [2], the “Triple reuptake inhibition (Ratio %) DAT” value was 40.14%. Also, the “Triple reuptake inhibition (Ratio %) SERT” value in test [3] was 86.78%.

For `COc1ccc2c(-c3nnc(CN4CCC(Cc5ccccc5)CC4)[nH]3)c[nH]c2c1` [Example 56, 3-(5-((4-benzylpiperidin-1-yl)methyl)-4H-1,2,4-triazol-3-yl)-6-methoxy-1H-indole], in test [1], the IC50 is 640 nM and the “Triple reuptake inhibition (Ratio %) NET” value turned out to be 39.66%. Besides, in test [2], half-maximal inhibition (IC50) was put at 1200 nM and the “Triple reuptake inhibition (Ratio %) DAT” value is on record as 45.52%. Further, in test [3], the IC50 came out at 300 nM and the “Triple reuptake inhibition (Ratio %) SERT” value was determined as 15.26%.

Consider `NC(=O)c1ccc2[nH]c(-c3nnc(CN4CCC(Cc5ccccc5)CC4)[nH]3)cc2c1` [Example 57, 2-(5-((4-benzylpiperidin-1-yl)methyl)-4H-1,2,4-triazol-3-yl)-1H-indol-5-carboxamide], for which, in test [1], 463 nM corresponded to half-maximal inhibition (IC50) and the “Triple reuptake inhibition (Ratio %) NET” value is recorded as 37.21%. In test [2], half-maximal inhibition (IC50) required 208 nM and the “Triple reuptake inhibition (Ratio %) DAT” value stood at 20.95%. In test [3], the IC50 amounted to 580 nM and the “Triple reuptake inhibition (Ratio %) SERT” value is recorded as 56.55%.

In the case of `CN(C)CCNC(=O)c1ccc(-c2nnc(CN3CCC(Cc4ccccc4)CC3)[nH]2)cc1` [Example 58, 4-(5-((4-benzylpiperidin-1-yl)methyl)-4H-1,2,4-triazol-3-yl)-N-(2-(dimethylamino)ethyl)benzoamide], in test [1], the “Triple reuptake inhibition (Ratio %) NET” value was 76.51%. For the same molecule, the “Triple reuptake inhibition (Ratio %) DAT” value in test [2] came out at 77.67%. In addition, the “Triple reuptake inhibition (Ratio %) SERT” value in test [3] was determined as 50.24%.

For the molecule `COc1ccc2c(-c3nnc(CN4CCC(Cc5ccc(Cl)c(Cl)c5)CC4)[nH]3)c[nH]c2c1` [Example 59, 3-(5-((4-(3,4-dichlorobenzyl)piperidin-1-yl)methyl)-4H-1,2,4-triazol-3-yl)-6-methoxy-1H-indole], the “Triple reuptake inhibition (Ratio %) NET” value in test [1] is reported as 77.82%. Also, in test [2], the “Triple reuptake inhibition (Ratio %) DAT” value was found to be 75.06%. In test [3], 226 nM corresponded to half-maximal inhibition (IC50) and the “Triple reuptake inhibition (Ratio %) SERT” value is given as 31.88%.

`COC(=O)c1cccc2c(-c3nnc(CN4CCC(Cc5ccc(Cl)c(Cl)c5)CC4)[nH]3)c[nH]c12` [Example 60, methyl 3-(5-((4-(3,4-dichlorobenzyl)piperidin-1-yl)methyl)-4H-1,2,4-triazol-3-yl)-1H-indol-7-carboxylate]: in test [1], the “Triple reuptake inhibition (Ratio %) NET” value amounted to 95.63%. In addition, the “Triple reuptake inhibition (Ratio %) DAT” value in test [2] turned out to be 94.44%. In test [3], inhibition was half-maximal at 1870 nM (IC50) and the “Triple reuptake inhibition (Ratio %) SERT” value turned out to be 61.70%.
